Test results reported in patent US20070249620A1, “Urea Derivative” (priority 2004, published 2007).

How the values were obtained:
[1] = target: T1, mouse DGAT1 (Mus musculus, UniProt Q9Z2A7); experiment: DGAT1 inhibitory effect test (microsome fraction, [14C]-oleoyl-CoA, triglyceride radioactivity by TLC); format: biochemical; conditions: 0.5 h; concentration of the test compound 0.1 μg/ml; mouse DGAT1 microsomes, 23° C., 30 minutes; read-out: Inhibitory ratio
T1 construct: made in house; host or cells: insect cells (High Five, Sf9, Sf21, etc.), baculovirus expression system (Invitrogen)
T1 sequence (Q9Z2A7 1-498): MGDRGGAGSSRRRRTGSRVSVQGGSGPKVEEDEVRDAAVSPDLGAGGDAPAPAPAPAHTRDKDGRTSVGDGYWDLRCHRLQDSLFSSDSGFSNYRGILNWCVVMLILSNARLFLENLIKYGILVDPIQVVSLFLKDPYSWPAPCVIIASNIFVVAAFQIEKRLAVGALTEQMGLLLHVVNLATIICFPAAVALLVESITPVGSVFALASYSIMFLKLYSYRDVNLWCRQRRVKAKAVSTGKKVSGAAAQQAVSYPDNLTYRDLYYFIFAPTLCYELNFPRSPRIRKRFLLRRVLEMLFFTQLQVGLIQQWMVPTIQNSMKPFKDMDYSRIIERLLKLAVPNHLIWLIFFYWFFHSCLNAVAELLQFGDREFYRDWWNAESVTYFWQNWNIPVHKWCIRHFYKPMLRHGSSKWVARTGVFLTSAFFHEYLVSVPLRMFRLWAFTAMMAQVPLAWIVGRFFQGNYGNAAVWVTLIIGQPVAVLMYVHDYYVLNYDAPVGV
Protocol: The cDNA which encodes mouse DGAT1 was cloned from a mouse cDNA library by polymerase chain reaction (hereinafter referred to as “PCR”) and introduced into an insect cell virus vector (baculovirus expression system, Invitrogen). After insect cells (High Five, Sf9, Sf21, etc., Invitrogen) were infected with the virus, the cells were collected in buffer A [0.1M sucrose, 50 mM KCl, 40 mM potassium phosphate (pH 7.4), 30 mM EDTA, 1% Protease inhibitor cocktail (SIGMA, P-8340)] and crushed with a Polytron homogenizer. The supernatant obtained by subjecting the homogenate to low speed centrifugal processing (10,000 ×g, 30 minutes) was further subjected to higher-speed centrifugal processing (100,000 ×g, 60 minutes) and the precipitate was resuspended in buffer A as the microsome fraction and used as DGAT1 enzyme. The DGAT1 enzyme was divided into small volumes and stored at −80° C.
(2) DGAT1 Inhibitory Effect Test
The reaction liquid of the following composition [175 mM Tris-HCl (pH 8.0), 8 mM MgCl2, 1 mg/ml BSA, 0.5 mM 1,2-dioleoyl-sn-glycerol (EtOH solution of 10-fold concentration, 10% added), 30 μM[14C]-oleoyl-CoA (about 50 mCi/mmol), 0.5% triton X-100, DGAT1 enzyme (10 μg) obtained in Test Example 1(1), test compound or vehicle (DMSO/MeOH, 7:3 solution, 5% added), total volume 50 μl] was incubated at room temperature (23° C.) for 30 minutes. A reaction terminating solution (70 μl) consisting of isopropanol/1-heptane/water (80:20:2, v/v/v) was added to the reaction solution and stirred, and subsequently stirred with water (30 μl) and 1-heptane (100 μl). The 1-heptane layer (50 μl) was spotted onto a TLC plate and developed with a developing solvent consisting of 1-hexane/diethyl ether/acetic acid (85:15:1, v/v/v). Radioactivity of triglyceride fraction was quantified by BAS2000 bio image analyzer (Fuji Film) and the inhibitory effect of the test compounds was calculated by the following formula through comparison with control. Here, radioactivity at no reaction (0 minutes incubation) was assumed as background. Inhibitory ratio=100−[(Radioactivity when test compound was added)−(Background)]/[(Radioactivity by control)−(Background)]×100

| Compound | inhibition at 0.1 µg/mL [1] [%] | melting point [°C] |
| --- | --- | --- |
| COc1ccc(NC(=O)N2CCN(c3ccc(NC(=O)Nc4cc(F)ccc4OC)cn3)CC2)c(C)c1 [Example 153, 4-{5-[3-(5-fluoro-2-methoxy-phenyl)-ureido]-pyridin-2-yl}-piperazine-1-carboxylic acid (4-methoxy-2-methyl-phenyl)-amide] | ≥ 50 | 212 to 214 |
| COc1ccc(C)cc1NC(=O)Nc1ccc(N2CCN(C(=O)Nc3ncccc3C)CC2)c(C)c1 [Example 313, 4-{4-[3-(2-methoxy-5-methyl-phenyl)-ureido]-2-methyl-phenyl}-piperazine-1-carboxylic acid (3-methyl-pyridin-2-yl)-amide] | ≥ 50 | 144 to 146 |
| COc1ccc(C)cc1NC(=O)Nc1ccc(N2CCN(C(=O)Nc3c(C)cccc3Br)CC2)cc1 [Example 177, 4-{4-[3-(2-methoxy-5-methyl-phenyl)-ureido]-phenyl}-piperazine-1-carboxylic acid (2-bromo-6-methyl-phenyl)-amide] | ≥ 50 | 221 to 222 |
| Cc1nc(NC(=O)Nc2ccc(N3CCN(C(=O)Nc4ccc(OCCO)cc4C(F)(F)F)CC3)cc2)sc1C [Example 225, 4-{4-[3-(4,5-dimethyl-thiazol-2-yl)-ureido]-phenyl}-piperazine-1-carboxylic acid [4-(2-hydroxy-ethoxy)-2-trifluoromethyl-phenyl]-amide] | ≥ 50 | 166 to 167 |
| COc1ccccc1NC(=O)Nc1ccc2c(c1)CCN(C(=O)Nc1ccc(OCC(O)CO)cc1Cl)C2 (stereo not drawn) [Example 284, 6-[3-(2-methoxy-phenyl)-ureido]-3,4-dihydro-1H-isoquinoline-2-carboxylic acid [2-chloro-4-(2,3-dihydroxy-propoxy)-phenyl]-amide] | ≥ 50 | 107 to 111 |
| CCOc1ccccc1NC(=O)Nc1ccc(N2CCN(C(=O)OC(C)(C)C)CC2)nc1 [Example 39, 4-{5-[3-(2-ethoxy-phenyl)-ureido]-pyridin-2-yl}-piperazine-1-carboxylic acid tert-butyl ester] | ≥ 50 | 162 |
| COc1ccc(F)cc1NC(=O)Nc1ccc(N2CCN(C(=O)Nc3ccc(OCCO)cc3C(F)(F)F)CC2)cc1 [Example 212, 4-{4-[3-(5-fluoro-2-methoxy-phenyl)-ureido]-phenyl}-piperazine-1-carboxylic acid [4-(2-hydroxy-ethoxy)-2-trifluoromethyl-phenyl]-amide] | ≥ 50 | 140 to 141 |
| COc1cc(NC(=O)Nc2ccc3c(c2)CCN(C(=O)Nc2ccc(OCC(O)CO)cc2Cl)C3)cc(OC)c1 (stereo not drawn) [Example 285, 6-[3-(3,5-dimethoxy-phenyl)-ureido]-3,4-dihydro-1H-isoquinoline-2-carboxylic acid [2-chloro-4-(2,3-dihydroxy-propoxy)-phenyl]-amide] | ≥ 50 | 108 to 110 |
| CCCCc1ccc(NC(=O)N2CCN(c3ccc(NC(=O)Nc4cc(C)ccc4OC)cc3)CC2)c(C)c1 [Example 75, 4-{4-[3-(2-methoxy-5-methyl-phenyl)-ureido]-phenyl}-piperazine-1-carboxylic acid (4-butyl-2-methyl-phenyl)-amide] | ≥ 50 | 172 to 173 |
| CCOc1cccc(NC(=O)Nc2ccc3c(c2)CCN(C(=O)Nc2ccc(OCC(O)CO)cc2Cl)C3)c1 (stereo not drawn) [Example 291, 6-[3-(3-ethoxy-phenyl)-ureido]-3,4-dihydro-1H-isoquinoline-2-carboxylic acid [2-chloro-4-(2,3-dihydroxy-propoxy)-phenyl]-amide] | ≥ 50 | 134 to 139 |
| CCOc1ccc(C)cc1NC(=O)Nc1ccc(N2CCN(C(=O)Nc3c(C)cccc3OC)CC2)cc1 [Example 184, 4-{4-[3-(2-ethoxy-5-methyl-phenyl)-ureido]-phenyl}-piperazine-1-carboxylic acid (2-methoxy-6-methyl-phenyl)-amide] | ≥ 50 | 142 to 144 |
| COc1cccnc1NC(=O)Nc1ccc(N2CCN(C(=O)Nc3ccc(OCCO)cc3Cl)CC2)cc1 [Example 270, 4-{4-[3-(3-methoxy-pyridin-2-yl)-ureido]-phenyl}-piperazine-1-carboxylic acid [2-chloro-4-(2-hydroxy-ethoxy)-phenyl]-amide] | ≥ 50 | 215 to 216 |
| COc1ccc(Cl)cc1NC(=O)Nc1ccc(N2CCN(C(=O)Nc3c(F)cccc3F)CC2)cc1 [Example 77, 4-{4-[3-(5-chloro-2-methoxy-phenyl)-ureido]-phenyl}-piperazine-1-carboxylic acid (2,6-difluoro-phenyl)-amide] | ≥ 50 | 230 to 232 |
| CCOc1ccc(Cl)cc1NC(=O)Nc1ccc(N2CCN(C(=O)Nc3c(F)cccc3C(F)(F)F)CC2)cc1 [Example 105, 4-{4-[3-(5-chloro-2-ethoxy-phenyl)-ureido]-phenyl}-piperazine-1-carboxylic acid (2-fluoro-6-trifluoromethyl-phenyl)-amide] | ≥ 50 | 146 to 148 |
| O=C(Nc1ccc2c(c1)CCN(C(=O)Nc1ccc(OCCO)cc1Cl)C2)Nc1ccccc1F [Example 267, 6-[3-(2-fluoro-phenyl)-ureido]-3,4-dihydro-1H-isoquinoline-2-carboxylic acid [2-chloro-4-(2-hydroxy-ethoxy)-phenyl]-amide] | ≥ 50 | 183 to 186 |
| COc1ccc(C)cc1NC(=O)Nc1ccc(N2CCN(C(=O)Nc3ccc(OCCO)cc3C)CC2)nc1 [Example 219, 4-{5-[3-(2-methoxy-5-methyl-phenyl)-ureido]-pyridin-2-yl}-piperazine-1-carboxylic acid [4-(2-hydroxy-ethoxy)-2-methyl-phenyl]-amide] | ≥ 50 | 189 to 190 |
| CCOc1ccc(F)cc1NC(=O)Nc1ccc(N2CCN(C(=O)Nc3c(Cl)cccc3Cl)CC2)cc1 [Example 94, 4-{4-[3-(2-ethoxy-5-fluoro-phenyl)-ureido]-phenyl}-piperazine-1-carboxylic acid (2,6-dichloro-phenyl)-amide] | ≥ 50 | 212 to 214 |
| COc1ccc(C)cc1NC(=O)Nc1ccc(N2CCN(C(=O)C(O)c3ccccc3Cl)CC2)cc1 (stereo not drawn) [Example 378, 1-(4-{4-[2-(2-chloro-phenyl)-2-hydroxy-acetyl]-piperazin-1-yl}-phenyl)-3-(2-methoxy-5-methyl-phenyl)-urea] | ≥ 50 | 118 to 120 |
| CCOc1ccc(Cl)cc1NC(=O)Nc1ccc(N2CCN(C(=O)Nc3ccc(C)cc3Cl)CC2)cc1 [Example 107, 4-{4-[3-(5-chloro-2-ethoxy-phenyl)-ureido]-phenyl}-piperazine-1-carboxylic acid (2-chloro-4-methyl-phenyl)-amide] | ≥ 50 | 124 to 126 |
| COc1ccc(Cl)cc1NC(=O)Nc1ccc(N2CCN(C(=O)OC(C)(C)C)CC2)nc1 [Example 40, 4-{5-[3-(5-chloro-2-methoxy-phenyl)-ureido]-pyridin-2-yl}-piperazine-1-carboxylic acid tert-butyl ester] | ≥ 50 | 155 to 157 |
| COc1ccc(C)cc1NC(=O)Nc1ccc(C2CCN(C(=O)Nc3cc(OCCO)ccc3Cl)CC2)cc1 [Example 274, 4-{4-[3-(2-methoxy-5-methyl-phenyl)-ureido]-phenyl}-piperidine-1-carboxylic acid [2-chloro-5-(2-hydroxy-ethoxy)-phenyl]-amide] | ≥ 50 | 202 to 205 |
